Test system: A549 cells
Test: cells
Details: Homo sapiens, A549, 72 h, read-out: IC50, cytotoxicity for A549

CC[C@@]1(O)C(=O)OCc2c1cc1n(c2=O)Cc2cc3ccccc3nc2-1 [CPT, Camptothecin] was tested, and the IC50 was 260 nM.

Reference: PMC11278161 (Marine Drugs, 2024)
